# Source: US12318452B2, “Degraders of WEE1 kinase” (DANA-FARBER CANCER INSTITUTE, INC., priority 2018, dated 2025)
# Columns and labels:
# Format in all cases: cell-based
# PLK1 = PLK1 (Homo sapiens, UniProt P53350); assay: PLK1 level by immunoblot in MOLT4 cells
# Description: (§1) MOLT4 cells were plated at 1.5 million cells per well in a 6-well plate, with 3 mL of media per well. Cells were then immediately treated with the indicated concentration of the indicated compound and incubated for the indicated amount of time. Cells were collected by transferring each well to a 15 mL conical, centrifuging (1000 rpm for 3 min), then washing the cell pellet 2× with cold PBS. Each cell pellet was then lysed in 100 μL of RIPA lysis buffer (+protease/phosphatase inhibitors). Samples were normalized and prepped in 4×LDS+10% β-mercaptoethanol and boiled for 5 min at 95° C. Lysates were probed for specified proteins by western blotting using the Bolt® system (Life Technologies™)
# Immunoblotting: Cells were washed with phosphate-buffered saline (PBS) and then lysed using radioimmunoprecipitation assay (RIPA) buffer supplemented with protease and phosphatase inhibitor cocktail (Roche) on ice for 15 minutes. The lysates were centrifuged at 14,000 rpm for 15 minutes at 4° C. and protein was quantified by bicinchoninic acid (BCA) assay (Pierce™). […]
# FIG. 2A is an immunoblot showing that compound 13 degraded Wee1 after a 6-hour treatment in MOLT4 cells, and induced the downstream changes expected from Wee1 loss—including a decrease in phosphorylated cyclin-dependent kinase 1 (pCDK1) (Y15) and an increase in pH 3. […] Proteins of interest were then assessed by western blotting.
# Wee1 = Wee1 (Homo sapiens, UniProt P30291); assay: Wee1 degradation immunoblot in MOLT4 cells, 5-hr dose response and time course; set-up: endogenous in cells; host or cells: MOLT4 (wild type; CRBN-/- as control); conditions: for Wee1 degradation: 5-hr exposure, 100 nM-10 μM
# Sequence of Wee1 (P30291 whole entry): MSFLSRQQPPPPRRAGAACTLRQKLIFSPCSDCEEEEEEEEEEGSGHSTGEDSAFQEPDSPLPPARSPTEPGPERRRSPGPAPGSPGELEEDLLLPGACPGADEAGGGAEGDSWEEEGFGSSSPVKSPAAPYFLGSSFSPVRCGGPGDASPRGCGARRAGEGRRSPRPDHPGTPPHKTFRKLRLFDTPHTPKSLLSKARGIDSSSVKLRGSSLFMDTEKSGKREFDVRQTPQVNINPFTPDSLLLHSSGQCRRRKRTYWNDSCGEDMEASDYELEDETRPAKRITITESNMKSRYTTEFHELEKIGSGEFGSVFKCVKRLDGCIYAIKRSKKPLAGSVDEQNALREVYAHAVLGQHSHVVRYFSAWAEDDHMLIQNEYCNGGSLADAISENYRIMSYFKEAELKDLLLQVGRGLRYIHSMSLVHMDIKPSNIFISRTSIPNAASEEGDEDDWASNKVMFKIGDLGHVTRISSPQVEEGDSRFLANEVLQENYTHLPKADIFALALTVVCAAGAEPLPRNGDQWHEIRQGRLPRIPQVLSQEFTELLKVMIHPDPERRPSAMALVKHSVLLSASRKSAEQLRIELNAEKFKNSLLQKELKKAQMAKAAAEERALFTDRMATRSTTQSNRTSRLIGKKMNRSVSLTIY
# Description: (§2) Whole cell lysates for immunoblotting were prepared by pelleting cells from each cell line at 4° C. (300 g) for 5 minutes. The resulting cell pellets were washed 1× with ice-cold PBS and then resuspended in RIPA lysis buffer (Sigma, cat #R0278) supplemented with protease and phosphatase inhibitor tablets (Roche cat #4906845001). Lysates were clarified at 14,000 rpm for 15 minutes at 4° C. prior to quantification by BCA assay (Pierce™, cat #23225). Whole cell lysates were loaded into Bolt 4-12% Bis-Tris Gels (Thermo Fisher, cat #NW04120BOX) and separated by electrophoreses at 95 V for 1.5 hours. The gels were transferred to a nitrocellulose membrane using the iBlot® Gel Transfer at P3 for 7 minutes (Thermo Fisher, cat #IB23001) and then blocked for 1 hour at room temperature in Odyssey® blocking buffer (LICOR® Biosciences, cat #927-50010). Membranes were probed using antibodies against the relevant proteins at 4° C. overnight in 20% Odyssey® Blocking Buffer in 1×TBST. Membranes were then washed three times with 1×TBST (at least 5 minutes per wash) followed by incubation with the IRDye® goat anti-mouse (LICOR®, cat #926-32210) or goat anti-rabbit (LICOR®, cat #926-32211) secondary antibody (diluted 1:10,000) in 20% Odyssey® Blocking Buffer in 1×TBST for 1 hour at room temperature. After three washes with 1×TBST (at least 5 minutes per wash), the immunoblots were visualized using the ODYSSEY® Infrared Imaging System (LICOR®).
# as §1
# To confirm that compound 13-mediated Wee1 degradation is CRBN dependent (FIG. 1D), Wee1 degradation profiles in parental versus CRBN^−/− MOLT4 cells were compared. In parental MOLT4 cells, compound 13 induced potent Wee1 degradation after 5 hours, with maximal degradation observed at 100 nM and a “hook effect” apparent at the top concentration of 10 μM, where compound 13:CRBN and compound 13-Wee1 binary complexes inhibit the formation of a productive ternary complex (Toure and Crews, Angew. Chem. 55:1966-1973 (2016)).
# To evaluate the kinetics of Wee1 degradation, a time course study was performed in MOLT4 cells using 100 nM compound 13. Degradation occurred rapidly, with over 50% degradation achieved within 30 min, and complete degradation reached by 3 hr (FIG. 4C).
# [1] = test system: Ikaros (IKZF1), Aiolos (IKZF3); assay: IKZF1 and IKZF3 degradation by immunoblot in MOLT4 cells
# Description: as §2, with “After three washes with 1×TBST (at least 5 minutes per wash), the immunoblots were visualized using the ODYSSEY® Infrared Imaging System (LICOR®).” left out
# pCDK1 Y15 = assay: Downstream signalling immunoblot in MOLT4 cells (pCDK1 Y15, cleaved PARP, γH2Ax)
# Description: as §2, §1
# The effects of targeted Wee1 degradation on the cell cycle were evaluated. Wee1 is required for the temporal regulation of CDK1 at the G2/M cell-cycle checkpoint, and Wee1 loss therefore […] via activation of CDK1. Following loss of Wee1 activity, cells are expected to enter mitosis before completing DNA repair, ultimately resulting in excessive unrepaired DNA damage, mitotic catastrophe, and apoptosis (Beck et al., Mol. Cell Biol. 32:4226-4236 (2012)).
# [2] = 100 nM, MOLT4 cells, time course
# Sequence of PLK1 (P53350 whole entry): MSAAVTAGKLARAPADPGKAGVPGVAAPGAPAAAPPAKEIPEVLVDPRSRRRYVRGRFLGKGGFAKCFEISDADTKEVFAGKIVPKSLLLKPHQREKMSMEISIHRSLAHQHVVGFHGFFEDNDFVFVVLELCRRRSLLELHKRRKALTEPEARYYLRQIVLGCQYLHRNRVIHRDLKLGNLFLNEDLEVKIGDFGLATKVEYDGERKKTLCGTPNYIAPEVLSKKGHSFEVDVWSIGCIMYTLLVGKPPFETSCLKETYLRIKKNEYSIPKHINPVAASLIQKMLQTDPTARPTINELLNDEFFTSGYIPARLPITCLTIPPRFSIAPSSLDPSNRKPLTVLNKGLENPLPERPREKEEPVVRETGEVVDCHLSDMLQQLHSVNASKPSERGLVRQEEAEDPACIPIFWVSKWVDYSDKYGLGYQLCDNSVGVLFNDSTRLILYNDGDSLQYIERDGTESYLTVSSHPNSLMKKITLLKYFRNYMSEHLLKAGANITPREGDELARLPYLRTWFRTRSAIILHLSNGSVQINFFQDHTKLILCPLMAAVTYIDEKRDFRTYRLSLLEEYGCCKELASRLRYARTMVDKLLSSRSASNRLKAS
Effect on Wee1 protein levels over time (Wee1; [2]),Structure (SMILES),PLK1 degradation (PLK1; 6-hour treatment),PLK1 levels (PLK1; treated for up to 48 hrs),"Time to complete Wee1 degradation (Wee1; 100 nM, MOLT4 cells) [h]",Wee1 degradation achieved within 30 min (Wee1; [2]),"Effect on Wee1 abundance in CRBN−/− cells (Wee1; CRBN−/− MOLT4 cells, 5 hours)",Wee1 degradation (Wee1; MOLT4 cells),"Concentration giving maximal (sufficient) Wee1 degradation (Wee1; MOLT4 cells, 5-hr treatment) [nM]","Concentration at which hook effect is apparent (Wee1; parental MOLT4 cells, 5 hours) [µM]","Duration of sustained loss of Wee1 (Wee1; single 100 nM treatment, MOLT4 cells)",IKZF1 / IKZF3 degradation after 24 hrs ([1]; 24 hrs of drug exposure),IKZF1 / IKZF3 degradation at short time points ([1]; short time points (5-hour)),Dose from which pCDK1 Y15 is decreased (pCDK1 Y15; CRBN−/− MOLT4 cells) [μM],Fold lower doses than AZD1775 for the same downstream effects (pCDK1 Y15; MOLT4 cells),Dose from which pCDK1 Y15 is reduced (pCDK1 Y15; parental MOLT4 cells) [nM]
–,"C=CCn1c(=O)c2cnc(Nc3ccc(N4CCN(CCCNc5cccc6c5C(=O)N(C5CCC(=O)NC5=O)C6=O)CC4)cc3)nc2n1-c1cccc(C(C)(C)O)n1 (stereo not shown) [Compound 13, 4-((3-(4-(4-((2-allyl-1-(6-(2-hydroxypropan-2-yl)pyridin-2-yl)-3-oxo-2,3-dihydro-1H-pyrazolo[3,4-d]pyrimidin-6-yl)amino)phenyl)piperazin-1-yl)propyl)amino)-2-(2,6-dioxopiperidin-3-yl)isoindoline-1,3-dione]",not degraded,not reduced,≤ 3,over 50%,no effect on Wee1 abundance,degraded Wee1,100,10,at least 48 hrs,degradation of both IKZF1 and IKZF3 was apparent,no degradation of either IKZF1 or IKZF3,1,up to 10 fold,100
no effect on Wee1 protein levels,"C=CCn1c(=O)c2cnc(Nc3ccc(N4CCN(CCCNc5cccc6c5C(=O)N(C5CCC(=O)N(C)C5=O)C6=O)CC4)cc3)nc2n1-c1cccc(C(C)(C)O)n1 (stereo not shown) [Compound 20, 4-((3-(4-(4-((2-allyl-1-(6-(2-hydroxypropan-2-yl)pyridin-2-yl)-3-oxo-2,3-dihydro-1H-pyrazolo[3,4-d]pyrimidin-6-yl)amino)phenyl)piperazin-1-yl)propyl)amino)-2-(1-methyl-2,6-dioxopiperidin-3-yl)isoindoline-1,3-dione]",–,–,–,–,–,did not degrade Wee1,–,–,–,–,–,–,–,–
